Data: patent US20120258975A1, “Potent Small Molecule Inhibitors of Autophagy, and Methods of Use Thereof” (Shanghai Institute of Organic Chemistry, priority 2009, published 2012)

Columns and labels:
Vps34 complexes = assay: Levels of endogenous Beclin1, Vps34, Atg14L in H4 and 293T cells (western blot); conditions: H4 cells and 293T cells; 10 μM; 3-MA 10 mM
Description: Twenty-four hours after the transfection, the cells were treated with indicated compounds for 12 h. The cell lysates were analyzed by western blotting using anti-HA, anti-flag or anti-tubulin. […] The cell lysates were harvested and analyzed by western blotting using: anti-Beclin1, anti-Atg14, anti-Vps34 and anti-UVRAG. Anti-α-tubulin was used as loading controls. […] The cell lysates were harvested and analyzed by western blotting using: anti-Beclin1 and anti-LC3. Anti-α-tubulin was used as loading controls.

bax/bak DKO MEF cells = assay: Etoposide induced cell death of bax/bak DKO cells; assay type: cell-based, mouse; conditions: etoposide 8 μM; MBCQ 10 μM, spautin 10 μM, 3-MA 10 mM; 8 h
Description: C, cells were collected for western blotting using anti-LC3 antibody. α-tubulin was used as a control. D-F, Bax/bak DKO cells were treated with spautin (10 μM) or indicated concentration, in the presence of or absent etoposide (8 μM) for 8 h or indicated time. […] F, Cells were collected for western blotting using anti-LC3 antibody. α-tubulin was used as a control.
Autophagy has been proposed to contribute to cell death in a number of apoptotic deficient cell types. For example, bax/bak double deficient mouse embryonic fibroblast cells (DKO mefs) are highly resistant to apoptosis (Wei, M. C., Zong, W. X., Cheng, E. H., Lindsten, T., Panoutsakopoulou, V., Ross, A. J., Roth, K. A., MacGregor, G. R., Thompson, C. B., and Korsmeyer, S. J. (2001). Proapoptotic BAX and BAK: a requisite gateway to mitochondrial dysfunction and death. Science 292, 727-730).

[1] = system: LC3-GFP (H4-LC3-GFP cells); assay: Starvation induced autophagy in H4-LC3-GFP cells; assay type: cell-based; conditions: Hanks buffer 1 h; MBCQ 5 μM, 3-MA 10 mM, wortmannin 0.1 μM
Text: FIG. 2 depicts results relating to MBCQ inhibition of autophagy induced by starvation. Quantitative measurement of LC3-GFP spot number per cell (a), spot size per cell (b) and spot intensity per cell (c) using HCS and expressed as % of control.

LC3-GFP (H4-LC3 cells) = assay: LC3-GFP image-based autophagy assay in H4-LC3 cells; assay type: cell-based; conditions: with rapamycin; MY-5445 30 μM, dipyridamole 80 μM, IBMX 100 μM, sildenafil 10 μM
Description: FIG. 1 relates to identification of a small molecule inhibitor of autophagy by an image-based screen. A, structure of MBCQ. B, Quantitative analysis of LC3-GFP spot number per cell (a), spot size per cell (b), spot intensity per cell (c). The data are expressed as % of control vehicle treated cells. H4-LC3 cells were seeded in 96 well-plates and incubated with vehicle control (1% DMSO), 0.2 μM rapamycin with or without 10 μM MBCQ for indicated time, fixed with 4% paraformaldehyde and stained with 4,6-diamidino-2-phenylindole (DAPI, 3 μg/ml). Images of 1000 cells for each compound treatment were analyzed by ArrayScan HCS 4.0 Reader with a 20× objective (Cellomics, Pittsburgh, Pa.).
(§1) FIG. 14 depicts MBCQ derivatives that can inhibit autophagy. To calculate EC50, H4-LC3 cells were seeded in 96 well-plates and cultured in the presence of compounds in different concentration for 24 h, and then fixed with polyformate and stained with 4,6-diamidino-2-phenylindole (DAPI, 3 μg/ml). Images data were collected with an ArrayScan HCS 4.0 Reader with a 20× objective (Cellomics, Pittsburgh, Pa.) for DAPI labeled nuclei and GFP-LC3, a marker for autophagy. The Spot Detector Bio-Application was used to acquire and analyze the images after optimization. Images of 1000 cells for each compound treatment were analyzed to obtain average cell number per field, fluorescence spot number, area and intensity per cell. DMSO and rapamycin were used as negative or positive control, respectively. The percentages of changes of LC3-GFP were calculated by dividing with that of DMSO treated samples. Each treatment was done in triplicate for mean and SD. The images were also analyzed using a conventional fluorescence microscope for visual inspection. The experiments were repeated three times
as §1, with “15” for “14”, “with reduced or no ability to” for “that can”, “times.” for “times”
To explore the mechanism of autophagy and identify additional small molecules that can activate it, a high-throughput image-based screen for autophagy regulators was developed. This system takes advantage of the localization of light chain 3 coupled to GFP (LC3-GFP) to autophagosomal membrane upon induction of autophagy (Zhang, L., Yu, J., Pan, H., Hu, P., Hao, Y., Cai, W., Zhu, H., Yu, A. D., Xie, X., Ma, D., et al. (2007). Small molecule regulators of autophagy identified by an image-based high-throughput screen. Proc Natl Acad Sci USA 104, 19023-19028). […] Compounds that increase cellular levels of LC3-GFP, however, are not necessarily able to increase degradative activity of autophagy. Instead, the increases of LC3-GFP may be associated with cell death or may be a result of lysosomal defect and thus associated with blockage of autophagy. […]

PDE5 = PDE5 (Homo sapiens, UniProt O76074); assay: Determination of % inhibition of PDE5 activity; assay type: biochemical; conditions: for inhibition at 0.2 µM: Concentration = 0.2 μM; for inhibition at 2 µM: Concentration = 2 μM; for inhibition at 20 µM: Concentration = 20 μM

Compound	activity on autophagy (LC3-GFP (H4-LC3 cells))	inhibition at 0.2 µM (PDE5) [%]	inhibition at 2 µM (PDE5) [%]	inhibition at 20 µM (PDE5) [%]	also measured
Cn1cnc(N)c2ncnc1-2 [3-MA, 3-methyladenine]	–	–	–	–	levels of endogenous Beclin1, Vps34 and Atg14L (Vps34 complexes): no effect on endogenous Beclin1; cell death induced by etoposide (bax/bak DKO MEF cells): inhibits etoposide induced death; starvation induced autophagy (LC3-GFP spot number, size, intensity) [1]: inhibited
CC(C)Cn1c(=O)n(C)c(=O)c2[nH]cnc21 [IBMX]	None of the PDE5 inhibitors tested	–	–	–	–
Clc1cccc(Nc2nnc(-c3ccccc3)c3ccccc23)c1 [MY-5445]	None of the PDE5 inhibitors tested	–	–	–	–
CCCc1nn(C)c2c(=O)[nH]c(-c3cc(S(=O)(=O)N4CCN(C)CC4)ccc3OCC)nc12 [Sildenafil]	None of the PDE5 inhibitors tested	96.5	98.8	102	–
CCCOc1ccccc1-c1nc2nn[nH]c2c(=O)[nH]1 [Zaprinast]	–	38	88.4	102	–
OCCN(CCO)c1nc(N2CCCCC2)c2nc(N(CCO)CCO)nc(N3CCCCC3)c2n1 [dipyridamole]	None of the PDE5 inhibitors tested	–	–	–	–
